Measured values taken from US8188077B2, “Apoptosis-inducing agents for the treatment of cancer and immune and autoimmune diseases” (Abbott Laboratories, priority 2010, dated 2012).

Target: T1, Bcl-2 protein (Homo sapiens, UniProt P10415, DELINS35-91DVEENRTEAPEGTESE, form not given)
T1 construct: fused on or other part: Bcl-xL (Q07817) residues 29-44 stand in place of Bcl-2's own unstructured loop 35-91; The C-terminal membrane anchor (208-239) is absent
Test: Bcl-2 fluorescence polarization assay (FPA) binding
Details: 10 nM Bcl-2 protein, 1 nM fluorescein-labeled BAX peptide, room temperature, read-out: Bcl-2 FPA 11pt Ki
Procedure: Assays for the inhibition of Bcl-2 were performed in 96-well microtiter plates. Compounds of the instant invention were diluted in DMSO to concentrations between […] and 10 pM and introduced into each well of the plate. A mixture totaling 125 µL per well of assay buffer (20 mM phosphate buffer (pH 7.4), 1 mM EDTA, 0.05% PF-68), 10 nM of Bcl-2 protein (prepared according to the procedure described in PNAS 2001, 98, 3012-3017), 1 nM fluorescein-labeled BAX peptide (prepared in-house), and the DMSO solution of the compound of the instant invention was shaken for 2 minutes and placed in a LJL Analyst (LJL Bio Systems, CA. Polarization was measured at room temperature using a continuous Fluorescein lamp (excitation 485 nm, emission 530 nm). Ki values were calculated using Microsoft Excel.

T1 sequence (P10415 with tags, fused parts or gaps with the stated changes): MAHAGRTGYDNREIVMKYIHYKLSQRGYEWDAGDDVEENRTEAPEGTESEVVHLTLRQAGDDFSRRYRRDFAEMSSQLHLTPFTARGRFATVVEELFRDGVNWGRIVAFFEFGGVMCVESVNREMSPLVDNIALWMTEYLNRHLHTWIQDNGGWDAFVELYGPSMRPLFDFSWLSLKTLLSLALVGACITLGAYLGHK

Ki [nM] | Structure (SMILES)
> 18700 | O=C(NS(=O)(=O)c1ccc(NCC2CCCCC2)c([N+](=O)[O-])c1)c1ccc(N2CCN(CCC34CC5CC(CC(C5)C3)C4)CC2)cc1 [Example 58, 4-(4-{2-[adamantan-1-yl]ethyl}piperazin-1-yl)-N-({4-[(cyclohexylmethyl)amino]-3-nitrophenyl}sulfonyl)benzamide]
47.4 | CC12CC(CN(c3ccc(S(=O)(=O)NC(=O)c4ccc(N5CCN(Cc6ccccc6-c6ccc(Cl)cc6)CC5)cc4)cc3)C1=O)C2 [Example 14, 4-{4-[(4′-chlorobiphenyl-2-yl)methyl]piperazin-1-yl}-N-{[4-(1-methyl-2-oxo-3-azabicyclo[3.1.1]hept-3-yl)phenyl]sulfonyl}benzamide]
1470 | O=C(NS(=O)(=O)c1ccc(NCC2CCOCC2)c([N+](=O)[O-])c1)c1ccc(N2CCN(Cc3ccccc3-c3ccc(C(=O)Nc4ccc5oc(-c6ccccc6)nc5c4)o3)CC2)cc1 [Example 64, 5-{2-[(4-{4-[({3-nitro-4-[(tetrahydro-2H-pyran-4-ylmethyl)amino]phenyl}sulfonyl)carbamoyl]phenyl}piperazin-1-yl)methyl]phenyl}-N-(2-phenyl-1,3-benzoxazol-5-yl)-2-furamide]
79 | C[C@@H]1[C@@H](N(CCCc2ccccc2)C2CCN(c3ccc(C(=O)NS(=O)(=O)c4ccc(NC5CCOCC5)c([N+](=O)[O-])c4)cc3)CC2)C[C@H]2C[C@@H]1C2(C)C [Example 45, N-{[3-nitro-4-(tetrahydro-2H-pyran-4-ylamino)phenyl]sulfonyl}-4-(4-{(3-phenylpropyl)[(1S,2S,3S,5R)-2,6,6-trimethylbicyclo[3.1.1]hept-3-yl]amino}piperidin-1-yl)benzamide]
789 | O=C(NS(=O)(=O)c1ccc(NCC2CCOCC2)c([N+](=O)[O-])c1)c1ccc(N2CCC(=Cc3ccccc3-c3cn(C45CC6CC(CC(C6)C4)C5)nc3C(=O)N(c3ccccc3)c3ccccc3)CC2)cc1 [Example 69, 1-[adamantan-1-yl]-4-{2-[(1-{4-[({3-nitro-4-[(tetrahydro-2H-pyran-4-ylmethyl)amino]phenyl}sulfonyl)carbamoyl]phenyl}piperidin-4-ylidene)methyl]phenyl}-N,N-diphenyl-1H-pyrazole-3-carboxamide]
1300 | COc1ccc(-c2ccc3cc(C(=O)NS(=O)(=O)c4ccc(NCC5CCCCC5)c([N+](=O)[O-])c4)ccc3c2)cc1C12CC3CC(CC(C3)C1)C2 [Example 80, 6-{3-[adamantan-1-yl]-4-methoxyphenyl}-N-({4-[(cyclohexylmethyl)amino]-3-nitrophenyl}sulfonyl)-2-naphthamide]
1420 | CC1(C)[C@@H]2CC[C@@]1(C)CN(c1ccc(C(=O)NS(=O)(=O)c3ccc(NC4CCOCC4)c([N+](=O)[O-])c3)cc1)C2 [Example 79, N-{[3-nitro-4-(tetrahydro-2H-pyran-4-ylamino)phenyl]sulfonyl}-4-[(1R,5S)-1,8,8-trimethyl-3-azabicyclo[3.2.1]oct-3-yl]benzamide]
91.9 | C[C@@H]1[C@@H](Nc2ccccc2CN2CCN(c3ccc(C(=O)NS(=O)(=O)c4ccc(NCC5CCOCC5)c([N+](=O)[O-])c4)cc3)CC2)C[C@@H]2C[C@H]1C2(C)C [Example 32, N-({3-nitro-4-[(tetrahydro-2H-pyran-4-ylmethyl)amino]phenyl}sulfonyl)-4-[4-(2-{[(1R,2S,3S,5S)-2,6,6-trimethylbicyclo[3.1.1]hept-3-yl]amino}benzyl)piperazin-1-yl]benzamide]
504 | C[C@@H]1[C@@H](N(Cc2ccc(-c3ccc(C(=O)NS(=O)(=O)c4ccc(NCC5CCCCC5)c([N+](=O)[O-])c4)cc3)cc2)C(=O)CCc2ccccc2)C[C@H]2C[C@@H]1C2(C)C [Example 60, N-({4-[(cyclohexylmethyl)amino]-3-nitrophenyl}sulfonyl)-4′-({(3-phenylpropanoyl)[(1S,2S,3S,5R)-2,6,6-trimethylbicyclo[3.1.1]hept-3-yl]amino}methyl)biphenyl-4-carboxamide]
